Compound: COc1nc(N)nc2c1ncn2[C@@H]1O[C@H](CO)[C@@H](O)[C@@H]1O [Nelarabine] + COc1cccc2cc(-c3nc([C@H]4CC[C@H](C(=O)O)CC4)n4ncnc(N)c34)[nH]c12 [OSI-027] (partner 0.5 µM)
Experiment: relative viability (nuclei count vs DMSO), 5 days (fraction); higher = more cells survive
Conditions: first compound 1 µM
Procedure, shortened: (§1)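 One day after seeding in 1536-well plates, lung cancer cell lines were dosed by pin tool. Dosing was either single-drug or a fixed anchor-drug dose plus five library-drug doses (not always all listed) in √10 steps. After 5 days, nuclei were stained in one fix-and-stain step and counted on 4× images, and relative viability is the nuclei count of treated wells over that of vehicle wells, given as the median of duplicate plates.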

Going from CAL-12T to COR-L23, the relative viability rises from 0.583 to 0.759.

Compared with COR-L 105, ChaGo-K-1 is lower in relative viability: 0.715 for the first, 0.589 for the second.

First: EKVX
Second: EPLC-272H
The relative viability of the first is higher: 0.685 for the first, 0.233 for the second.

Going from H3255 to HARA, the relative viability rises from 0.456 to 0.487.

Going from HCC-15 to HCC-44, the relative viability falls from 0.778 to 0.52.

Going from HCC-78 to HCC-366, the relative viability rises from 0.372 to 0.973.

Compared with HCC-827, HOP-62 is higher in relative viability: 0.65 for the first, 0.838 for the second.

First: LC-2-ad
Second: LCLC-97TM1
The relative viability of the first is higher: 0.875 for the first, 0.56 for the second.

First: LCLC-103H
Second: LK-2
The relative viability of the first is higher: 0.486 for the first, 0.162 for the second.

Going from LOU-NH91 to LU99A, the relative viability falls from 0.748 to 0.291.

Going from LXF-289 to NCI-H23, the relative viability falls from 0.736 to 0.62.

Going from NCI-H322M to NCI-H358, the relative viability rises from 0.612 to 0.989.

Going from NCI-H441 to NCI-H460, the relative viability rises from 0.647 to 0.79.

First: NCI-H522
Second: NCI-H1395
The relative viability of the first is higher: 0.687 for the first, 0.634 for the second.

First: NCI-H1623
Second: NCI-H1648
The relative viability of the first is higher: 0.391 for the first, 0.281 for the second.

First: NCI-H1650
Second: NCI-H1793
The relative viability of the first is higher: 0.61 for the first, 0.326 for the second.

First: NCI-H2170
Second: NCI-H2342
The relative viability of the first is higher: 0.753 for the first, 0.626 for the second.

Cell Line SW 900 has a relative viability of 0.655.

Compound: C=CCn1c(=O)c2cnc(Nc3ccc(N4CCN(C)CC4)cc3)nc2n1-c1cccc(C(C)(C)O)n1 [Adavosertib] + CS(=O)(=O)CCNCc1ccc(-c2ccc3ncnc(Nc4ccc(OCc5cccc(F)c5)c(Cl)c4)c3c2)o1 [Lapatinib] (partner 2 µM)
Experiment: as above
Conditions: first compound 0.01 µM
Procedure, shortened: as §1

Going from 201T to A549, the relative viability falls from 1.02 to 0.908.

Going from A-427 to ABC-1, the relative viability rises from 1.01 to 1.12.

First: BEN
Second: COR-L23
The relative viability of the first is lower: 0.751 for the first, 1.06 for the second.

First: COR-L 105
Second: Calu-6
The relative viability of the first is lower: 0.361 for the first, 1.07 for the second.

First: EBC-1
Second: EKVX
The relative viability of the first is lower: 0.198 for the first, 0.216 for the second.

Compared with EPLC-272H, H3255 is lower in relative viability: 0.745 for the first, 0.25 for the second.

Compared with HARA, HCC-15 is higher in relative viability: 0.648 for the first, 0.902 for the second.

Going from HCC-44 to HCC-78, the relative viability falls from 0.976 to 0.509.

Compared with HCC-366, HCC-827 is lower in relative viability: 1.09 for the first, 0.198 for the second.

Going from HOP-62 to IA-LM, the relative viability falls from 1.14 to 0.996.

Compared with LC-2-ad, LK-2 is lower in relative viability: 0.964 for the first, 0.866 for the second.

Going from LOU-NH91 to LU99A, the relative viability rises from 0.74 to 1.02.

Compared with LXF-289, NCI-H23 is higher in relative viability: 0.905 for the first, 0.935 for the second.

Compared with NCI-H358, NCI-H460 is higher in relative viability: 0.355 for the first, 1.11 for the second.

First: NCI-H1299
Second: NCI-H1395
The relative viability of the first is higher: 0.954 for the first, 0.824 for the second.

Compared with NCI-H1650, NCI-H1703 is higher in relative viability: 0.75 for the first, 1.19 for the second.

Going from NCI-H1793 to NCI-H2170, the relative viability falls from 0.61 to 0.273.

Same assay, conditions: first compound 0.03162 µM

201T and A549 are the same in relative viability: 1.01 for the first, 1.01 for the second.

First: A-427
Second: ABC-1
The relative viability of the first is lower: 1.02 for the first, 1.09 for the second.

Going from BEN to CAL-12T, the relative viability falls from 0.728 to 0.678.

Compared with COR-L23, COR-L 105 is lower in relative viability: 1.09 for the first, 0.428 for the second.

Compared with Calu-6, EBC-1 is lower in relative viability: 1 for the first, 0.206 for the second.

Compared with EKVX, EPLC-272H is higher in relative viability: 0.233 for the first, 0.958 for the second.

First: H3255
Second: HARA
The relative viability of the first is lower: 0.251 for the first, 0.858 for the second.

Going from HCC-15 to HCC-44, the relative viability rises from 0.87 to 1.04.

Going from HCC-78 to HCC-366, the relative viability rises from 0.972 to 1.07.

Going from HCC-827 to HOP-62, the relative viability rises from 0.2 to 1.23.

Compared with LC-2-ad, LCLC-97TM1 is lower in relative viability: 0.954 for the first, 0.703 for the second.

Compared with LK-2, LOU-NH91 is lower in relative viability: 1.05 for the first, 0.804 for the second.

Going from LU99A to LXF-289, the relative viability falls from 0.96 to 0.894.

First: NCI-H23
Second: NCI-H322M
The relative viability of the first is higher: 1.25 for the first, 0.558 for the second.

Going from NCI-H358 to NCI-H460, the relative viability rises from 0.429 to 0.978.

Compared with NCI-H1299, NCI-H1395 is higher in relative viability: 0.968 for the first, 1.31 for the second.

Compared with NCI-H1650, NCI-H1703 is higher in relative viability: 0.884 for the first, 1.1 for the second.

Compared with NCI-H1793, NCI-H2170 is lower in relative viability: 0.714 for the first, 0.27 for the second.

Same assay, conditions: first compound 0.1 µM

First: 201T
Second: A549
The relative viability of the first is lower: 1.02 for the first, 1.06 for the second.

First: A-427
Second: ABC-1
The relative viability of the first is lower: 1.07 for the first, 1.24 for the second.

Going from BEN to CAL-12T, the relative viability falls from 0.801 to 0.598.

Going from COR-L23 to COR-L 105, the relative viability falls from 0.769 to 0.373.

Going from Calu-6 to EBC-1, the relative viability falls from 1.04 to 0.25.

Compared with EKVX, EPLC-272H is higher in relative viability: 0.201 for the first, 0.844 for the second.

Going from H3255 to HARA, the relative viability rises from 0.219 to 0.648.

Going from HCC-15 to HCC-44, the relative viability rises from 0.934 to 1.08.

Going from HCC-78 to HCC-366, the relative viability rises from 0.782 to 1.08.

Going from HCC-827 to HOP-62, the relative viability rises from 0.215 to 1.04.

Compared with IA-LM, LC-2-ad is lower in relative viability: 1.03 for the first, 0.991 for the second.

Compared with LCLC-97TM1, LK-2 is higher in relative viability: 0.804 for the first, 1.01 for the second.

First: LOU-NH91
Second: LU99A
The relative viability of the first is lower: 0.734 for the first, 0.956 for the second.

Going from LXF-289 to NCI-H23, the relative viability falls from 0.906 to 0.855.

Going from NCI-H322M to NCI-H358, the relative viability falls from 0.505 to 0.46.

Going from NCI-H460 to NCI-H1299, the relative viability falls from 1.04 to 0.977.

Going from NCI-H1395 to NCI-H1650, the relative viability falls from 1.03 to 0.747.

Going from NCI-H1703 to NCI-H1793, the relative viability falls from 0.93 to 0.721.

NCI-H2170 was tested, and the relative viability was 0.277.

Same assay, conditions: first compound 0.3162 µM

Compared with 201T, A549 is lower in relative viability: 1.09 for the first, 0.743 for the second.

Compared with A-427, ABC-1 is higher in relative viability: 0.999 for the first, 1.26 for the second.

Compared with BEN, CAL-12T is lower in relative viability: 0.948 for the first, 0.464 for the second.

First: COR-L23
Second: COR-L 105
The relative viability of the first is higher: 0.415 for the first, 0.349 for the second.

Going from Calu-6 to EBC-1, the relative viability falls from 0.356 to 0.21.

First: EKVX
Second: EPLC-272H
The relative viability of the first is lower: 0.225 for the first, 0.739 for the second.

Going from H3255 to HARA, the relative viability rises from 0.203 to 0.729.

Compared with HCC-15, HCC-44 is higher in relative viability: 0.955 for the first, 1.14 for the second.
